Experimental data: patent US9393187B2, “Peptide compounds that inhibit neuronal exocytosis” (LUBRIZOL ADVANCED MATERIALS, INC., priority 2012, dated 2016)

Test system: human neuroblastoma cell line
Test: Release of noradrenaline induced by TPA/Ionomycin in a neuroblastoma cell line, quantified by ELISA
Type: cell-based
Details: TPA/ION control = 100
Procedure: Quantification of the Release of Noradrenaline Induced by TPA/Ionomycin in a Neuroblastoma Cell Line by ELISA
The induction of the release of noradrenaline with TPA (12-O-tetradecanoylphorbol-13-acetate)/lonomycin enables direct measurement of neuronal exocytosis. For the study of the inhibitory effect of the compounds of the invention on the release of noradrenaline, cells of a human neuroblastoma cell line were pre-incubated (1×10^6 cells/well) for 60 minutes with the compound of the invention (1 μM, 10 μM, 100 μM, 500 μM or 1 mM compounds), and afterwards the release of noradrenaline was induced. The release of the noradrenaline neurotransmitter was induced by an 8 minute pre-treatment with a solution of 12-O-tetradecanoylphorbol-13-acetate (TPA) 100 nM, which mobilized the intracellular vesicles which contained the neuro-transmitter; followed by a 5 minute incubation with TPA/Ionomycin (100 nM/10 μM), which induced the release of the neurotransmitter contained in these vesicles. […] For this, absorbance at 405 nm was measured in Thermo Scientific Multiskan Ascent equipment.
The blocking of the SNARE complex by the compounds of the invention lead to an inhibition of neuronal exocytosis and therefore, a decrease in the levels of released noradrenaline (Table 6).

Substance	% RELEASED NORADRENALINE Average (dose 1 μM)	% RELEASED NORADRENALINE Average (dose 10 μM)	% RELEASED NORADRENALINE Average (dose 100 μM)	% RELEASED NORADRENALINE Average (dose 500 μM)	% RELEASED NORADRENALINE Average (dose 1000 μM)
Ac-NDIAQM-NH2 [Ac-SEQ ID NO:30-NH2]	99.59%	94.48%	74.79%	48.07%	41.05%
Ac-RDFDQW-NH2 [Ac-SEQ ID NO:31-NH2]		83.33%	69.07%		31.72%
